The values that follow come from publication PMC10987480, “Biological and mutational analyses of CXCR4–antagonist interactions and design of new antagonistic analogs” (Bioscience Reports, 2023).

Molecules are shown by their SMILES. Like-named read-outs stand apart in the source and are kept apart here. Positions of bridges follow the written chain, without caps; N, C: chain ends. Non-standard residues stand in square brackets, D forms with d. Residues, ends and D or L forms follow the SMILES beside them. 2Nal = N[C@@H](Cc1ccc2ccccc2c1)C(=O)O; d2Nal = N[C@H](Cc1ccc2ccccc2c1)C(=O)O; Cit = NC(=O)NCCC[C@H](N)C(=O)O

Experiment [1] concerns the target T1, CXCR4 (Homo sapiens, UniProt P61073). Description: Competitive CXCR4 binding assay (12G5 antibody probe), wild-type CXCR4 transfected CHO cells. Further details: expressed in transfected cells. As for the experimental part: The CXCR4-specific antibody, 12G5 was used as a probe for the competitive CXCR4 binding assay to evaluate the binding activity of CXCR4 antagonists.
Figure 1 Competitive CXCR4 binding curves of eleven CXCR4 antagonists The CXCR4 transfected CHO cells were incubated with different concentrations of antagonists and 250 ng/ml 12G5 antibody. The CXCR4-binding 12G5 antibody was recognized by FITC-conjugated anti-IgG second antibody. The cells treated with only second antibody were used as a negative control (0%) while cells treated with both 12G5 antibody and second antibody were used as a positive control (100%). Cells treated with CXCR4 antagonists were calculated in percentage relative to the positive and negative controls. The data were averages of at least three independent experiments and shown as mean ± standard error of the mean (S.E.M.).
(§1) The procedure for the CXCR4 competitive binding experiments was published previously. Briefly, CXCR4 antibody 12G5 (250 ng/ml) was incubated with 5 × 10^5 cells and varying concentrations of unlabeled compounds in a final volume of 100 μl of assay buffer (PBS with 0.5% BSA and 0.05% NaN3) in 96-well plates for 40 min on ice, after being washed with assay buffer once. The cells were incubated with FITC-conjugated second antibody IgG for 30 min on ice, then washed with assay buffer three times. The fluorescence intensity was measured for excitation at 485 nm and emission at 535 nm using multimode plate reader (PerkinElmer). The IC50 values were calculated using graphpad Prism 7. Experiments were performed at least three times.

In experiment [2] the target is T1, CXCR4. Description: SDF-1α-induced cell migration assay in SupT1 cells (transwell). The settings on record: 2 nM SDF-1α, 30 min pre-incubation, 3 h migration; for inhibition at 40 µM: SUP-T1, at 40 μM. Format: cell-based. More on the design: host or cells: SupT1 cells. The method, then: (§2) Figure 2 The inhibitory effect of the antagonists on SDF-1α-induced cell chemotaxis and calcium mobilization in SupT1 cells The antagonists and concentrations used were labeled in each lane. (A) The inhibition of cell migration by the noted antagonists. SupT1 cells pre-treated with or without CXCR4 antagonists were seeded in the upper well and cell migrated by 2 nM SDF-1α. Migrated cells without SDF-1α were used as a negative (0%) and migrated cell induced by SDF-1α as a positive control (100%). […] SupT1 cells were treated with or without CXCR4 antagonists and activated by 50 nM SDF-1α. To directly compare the inhibitory effect of the antagonists on calcium mobilization, the vehicle background and baseline were removed using GraphPad and Origin. The data were averages of at least three independent experiments.
SupT1 cells (2 × 10^6 cells per well in 75 μl) were collected and washed using assay buffer (RPMI 1640 supplemented with 0.5% BSA) and incubated with various concentrations of tested compounds for 30 min in the upper well of the transwell-96 well plates with 5.0 µm pore polycarbonate membrane insert (Corning, U.S.A.). Then, 200 μl assay buffer containing 2 nM SDF-1α was added to the lower well and cells were allowed to migrate for 3 h. Migrated cells were measured using celltiter-96 reagent.

Experiment [3] has as its target T1, CXCR4. Description: SDF-1α-induced calcium mobilization assay in SupT1 cells (Fluo-4). Format: cell-based. More on the design: host or cells: SupT1 cells. The conditions noted are these: for inhibition at 10 µM: SUP-T1, at 10 μM, 50 nM SDF-1α, read-out: Inhibition of the calcium signal. As for the experimental part: as §2
SupT1 cells were collected and washed using HHBS buffer (Hanks’ Balanced Salt solution supplemented with 20 mM HEPES) and incubated with 1 mM probenecid (Energy Chemical, China) and 4 μM Fluo-4 (AAT bioquest, U.S.A.) for 37°C for 30 min with vortex every 5 min. After being washed with HHBS, cells were suspended in PBS at 2 × 10^6/ml and seeded 200 μl cells and various concentrations of compounds per well in 96-well plate. Following 50 nM SDF-1α was added to each well, the fluorescence intensity was measured (Ex/Em = 496/516 nm) using EnSpire® multimode plate reader (PerkinElmer, U.S.A.).
A general note: Calcium assays in cells follow changes in intracellular calcium, usually with a dye or a luminescent sensor.

Experiment [4] relates to CXCR4 mutants. Description: Mutational analysis of HM70116 binding to CXCR4 mutants compared with DV3. The settings on record: mutants F87A, W94A, Y116A, T117A, D171A, W195A, Y255A, D262N, H281A; three independent experiments with duplicate values.
From the text: Figure 10 The mutational analysis and molecular modeling of HM70116 interaction with CXCR4 (A) Mutational analysis of HM70116 interaction with CXCR4 binding pocket. The data was averaged from three independent experiments with duplicate values. The data were shown as mean ± standard error of the mean (S.E.M.). (B) MD simulation of HM70116-CXCR4 complex. (C) Binding mode of the N-terminus of vMIP-II in the CXCR4-binding pocket.
as §1

For experiment [5], the target named is T1, CXCR4. Description: CXCR4-mediated internalization assay, CHO cells expressing CXCR4-EGFP (confocal). Format: cell-based. More on the design: expressed in transfected cells. The settings on record: at 100 and 10 μM; SDF-1α-induced. The method, then: Figure 3 The inhibitory effect of the antagonists on CXCR4 internalization CHO cells expressed CXCR4-EGFP conjugates were seeded in 96-well plate with glass bottom. Untreated cells were used as a control. Cells were pre-treated with or without CXCR4 antagonists and internalized with 50 nM SDF-1α (scale bar: 5 μm). The concentrations of the antagonists used were the same as those for the calcium mobilization assay shown above. The data shown were representative of three independent experiments.
CXCR4 and EGFP were amplified using a primer shown in Supplementary Table S1. The pcDNA3 vector was digested by restriction-enzyme EcoR1 and Apa1. CXCR4 was digested by restriction-enzyme EcoR1 and Xba1. EGFP was digested by restriction-enzyme Xba1 and Apa1. CXCR4–EGFP conjugate was constructed by ligation of three DNA fragments using T4 ligase. The vector containing CXCR4 ligated EGFP at the C-terminus was transfected and expressed in CHO cells in 100 μl DMEM medium supplemented with 2% FBS at 1 × 10^5/ml which was seeded in 96-well black plate glass bottom and incubated at 37°C overnight. Following incubation with tested compounds for 10 min, 50 nM of SDF-1α was added to each well and the internalized CXCR4 was observed using a confocal microscopy (Zeiss LSM880).

Experiment [6] has as its system X4-tropic HIV. The settings on record: read-out: IC50, block of X4-tropic HIV infection via CXCR4; cited from earlier work. From the text:
(§3) To understand the receptor–ligand recognition mechanism involving CXCR4 and its antagonists, here in this study we conducted a series of comparative analyses of the biological activities and CXCR4 binding sites of eleven known CXCR4 antagonists, including the three mentioned above, using cell-based bioassays, CXCR4 site-directed mutagenesis and computer-aided molecular modeling. These antagonists studied here were chosen from different representative structural types including both D-peptides (i.e., HC4319, DV1, DV1 dimer, and DV3) and a representative counterpart L-peptide (i.e., V1) derived ...

Experiment [7] has as its system CXCR4. The settings on record: read-out: Competitive binding IC50; cited from earlier work.
From the text: as §3

The mark [8] stands for this setting: CXCR4 transfected CHO cells, 250 ng/ml 12G5, 40 min on ice, FITC second antibody, mean ± S.E.M. of at least three independent experiments, SEM, read-out: IC50 (nM), inhibition of 12G5 binding to CXCR4.

T1 sequence (P61073 whole entry): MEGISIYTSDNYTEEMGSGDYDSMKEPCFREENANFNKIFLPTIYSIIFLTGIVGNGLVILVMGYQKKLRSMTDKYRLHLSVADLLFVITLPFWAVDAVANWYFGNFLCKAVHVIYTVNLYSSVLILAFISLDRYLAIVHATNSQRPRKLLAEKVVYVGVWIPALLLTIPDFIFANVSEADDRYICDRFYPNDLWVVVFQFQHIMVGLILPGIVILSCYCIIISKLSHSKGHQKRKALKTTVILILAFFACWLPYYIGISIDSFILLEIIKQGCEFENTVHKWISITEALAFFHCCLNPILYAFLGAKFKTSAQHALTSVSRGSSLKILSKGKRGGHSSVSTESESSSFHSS

`N=C(N)NCCC[C@H](NC(=O)[C@@H]1CSSC[C@H](NC(=O)[C@H](Cc2ccc3ccccc3c2)NC(=O)[C@H](CCCNC(=N)N)NC(=O)[C@@H](N)CCCNC(=N)N)C(=O)N[C@@H](Cc2ccc(O)cc2)C(=O)N[C@@H](CCC(N)=O)C(=O)N[C@@H](CCCCN)C(=O)N2CCC[C@@H]2C(=O)N2CCC[C@H]2C(=O)N[C@@H](Cc2ccc(O)cc2)C(=O)N[C@@H](CCCNC(=N)N)C(=O)N[C@@H](CCCNC(N)=O)C(=O)N1)C(=O)NCC(=O)N1CCC[C@@H]1C(=O)O` [CVX15] (H-RR[2Nal]CYQK[dP]PYR[Cit]CRG[dP]-OH; disulfide 4-13): the IC50 in experiment [1] (setting [8]) amounted to 7.8 ± 2.2 nM. This compound came in with an inhibition at 0.02 µM in experiment [2] (SUP-T1, at 20 nM) of 65%.

`CC(C)C[C@@H](N)C(=O)NCC(=O)N[C@H](C)C(=O)N[C@H](CO)C(=O)N[C@H](Cc1c[nH]c2ccccc12)C(=O)N[C@H](Cc1c[nH]cn1)C(=O)N[C@H](CCCNC(=N)N)C(=O)N1CCC[C@@H]1C(=O)N[C@H](CC(=O)O)C(=O)N[C@H](CCCCN)C(=O)N[C@H](CS)C(=O)N[C@H](CS)C(=O)N[C@H](CC(C)C)C(=O)NCC(=O)N[C@H](Cc1ccc(O)cc1)C(=O)N[C@H](CCC(N)=O)C(=O)N[C@H](CCCCN)C(=O)N[C@H](CCCNC(=N)N)C(=O)N1CCC[C@@H]1C(=O)N[C@H](CC(C)C)C(=O)N1CCC[C@@H]1C(N)=O` [DV1] (H-[dL]G[dA][dS][dW][dH][dR][dP][dD][dK][dC][dC][dL]G[dY][dQ][dK][dR][dP][dL][dP]-NH2): the inhibition at 10 µM in experiment [3] was determined as 86%. Further, at 40 µM the inhibition in experiment [2] was 78%.

`CC(C)C[C@@H](N)C(=O)NCC(=O)N[C@H](C)C(=O)N[C@H](CO)C(=O)N[C@H](Cc1c[nH]c2ccccc12)C(=O)N[C@H](Cc1c[nH]cn1)C(=O)N[C@H](CCCNC(=N)N)C(=O)N1CCC[C@@H]1C(=O)N[C@H](CC(=O)O)C(=O)N[C@H](CCCCN)C(=O)O` [DV3] (H-[dL]G[dA][dS][dW][dH][dR][dP][dD][dK]-OH): the inhibition at 10 µM in experiment [3] was about 55%. Moreover, at 40 µM the inhibition in experiment [2] was 13%.

As for `CC(C)C[C@@H](N)C(=O)NCC(=O)N[C@H](C)C(=O)N[C@H](CO)C(=O)N[C@H](Cc1c[nH]c2ccccc12)C(=O)N[C@H](Cc1c[nH]cn1)C(=O)N[C@H](CCCNC(=N)N)C(=O)N1CCC[C@@H]1C(=O)N[C@H](CC(=O)O)C(=O)N[C@H](CCCCN)C(=O)N[C@H](CCCNC(=N)N)C(=O)N[C@H](CCCNC(=N)N)C(=O)O` [HM12] (H-[dL]G[dA][dS][dW][dH][dR][dP][dD][dK][dR][dR]-OH), in experiment [1] (SEM), the IC50 was 544 ± 75 nM.

In turn, `CC(C)C[C@@H](NC(=O)[C@@H](CCCNC(=N)N)NC(=O)[C@H](N)CCCCN)C(=O)NCC(=O)N[C@H](C)C(=O)N[C@H](CO)C(=O)N[C@H](Cc1c[nH]c2ccccc12)C(=O)N[C@H](Cc1c[nH]cn1)C(=O)N[C@H](CCCNC(=N)N)C(=O)N1CCC[C@@H]1C(=O)N[C@H](CC(=O)O)C(=O)N[C@H](CCCCN)C(=O)O` [HM60303] (H-[dK][dR][dL]G[dA][dS][dW][dH][dR][dP][dD][dK]-OH; N-terminus and C-terminus assumed) gave an IC50 in experiment [1] of over 50000 nM.

`CC(C)C[C@@H](N)C(=O)NCC(=O)N[C@H](C)C(=O)N[C@H](CO)C(=O)N[C@H](Cc1c[nH]c2ccccc12)C(=O)N[C@H](Cc1c[nH]cn1)C(=O)N[C@H](CCCNC(=N)N)C(=O)N1CCC[C@@H]1C(=O)N[C@H](CC(=O)O)C(=O)N[C@H](CCCCN)C(=O)N[C@H](CCCNC(=N)N)C(=O)O` [HM60323] (H-[dL]G[dA][dS][dW][dH][dR][dP][dD][dK][dR]-OH) returned an IC50 in experiment [1] (SEM) of 707 ± 143 nM.

In the case of `CC(C)C[C@@H](N)C(=O)NCC(=O)N[C@H](C)C(=O)N[C@H](CO)C(=O)N[C@H](Cc1c[nH]c2ccccc12)C(=O)N[C@H](Cc1c[nH]cn1)C(=O)N[C@H](CCCNC(=N)N)C(=O)N1CCC[C@@H]1C(=O)N[C@H](Cc1ccc2ccccc2c1)C(=O)N[C@H](CCCNC(=N)N)C(=O)N[C@H](CCCNC(=N)N)C(=O)O` [HM70116] (H-[dL]G[dA][dS][dW][dH][dR][dP][d2Nal][dR][dR]-OH; N-terminus and C-terminus assumed), the “Reduction in binding to CXCR4 mutants relative to DV3 (in words)” value in experiment [4] is “greater than DV3”. In experiment [5], the “Inhibition of CXCR4 internalization (in words)” value is listed as “effectively prevented CXCR4 internalization”. The “Inhibition of intracellular calcium mobilization (in words)” value in experiment [3] (1 μM pretreatment, SDF-1α-induced) is listed as “potently inhibited”.

For the compound `CC1(C)CN2C(CSC(=NC3CCCCC3)NC3CCCCC3)=CSC2=N1` [IT1t], the IC50 was 7 nM in experiment [6] and […] in experiment [7].

With `CC(C)C[C@H](NC(=O)[C@H](CS)NC(=O)[C@H](CS)NC(=O)[C@H](CCCCN)NC(=O)[C@H](CC(=O)O)NC(=O)[C@@H]1CCCN1C(=O)[C@H](CCCNC(=N)N)NC(=O)[C@H](Cc1c[nH]cn1)NC(=O)[C@H](Cc1c[nH]c2ccccc12)NC(=O)[C@H](CO)NC(=O)[C@H](C)NC(=O)CNC(=O)[C@@H](N)CC(C)C)C(=O)NCC(=O)N[C@@H](Cc1ccc(O)cc1)C(=O)N[C@@H](CCC(N)=O)C(=O)N[C@@H](CCCCN)C(=O)N[C@@H](CCCNC(=N)N)C(=O)N1CCC[C@H]1C(=O)N[C@@H](CC(C)C)C(=O)N1CCC[C@H]1C(=O)O` [V1] (H-LGASWHRPDKCCLGYQKRPLP-OH), in experiment [1] (setting [8]), the IC50 came to 2630 ± 891 nM. In experiment [2], this compound gave an inhibition at 40 µM of 68%.

The IC50 is the concentration that inhibits the measured activity by half. In general, inhibition refers to the drop in the measured response relative to a control, in per cent.
